Results: patent publication US9956181B2, “Composition of nanoformulated lycopene and method of using the composition” (priority 2015, dated 2018)

Test system: ovariectomized (OVX) rats
Test: OVX rat study: dynamic bone histomorphometry of tibial metaphysis and diaphysis
Assay type: in vivo, Wistar rats
Description: A total of 264 Wistar female rats, ˜6 months old, were supplied by the Animal House at King Fahd Medical Research Center (KFMRC), KAU. Rats were housed in individual cages and maintained at 22° C. with a 12-h light/dark cycle. During the study period, rats were given standard rodent chow diet ad libitum (commercial rat cubes containing approximately 18% protein, 3% fat, 77% carbohydrate, and 2% of an inorganic-salt mixture with a vitamin supplement by weight, supplied by Grain Silos and Flour Mills Organization, Jeddah, Saudi Arabia) and water until the onset of intervention. Prior to surgery, rats were anesthetized with ketamine [(10% ketamine hydrochloride (80 mg/kg body weight), Cayman Chemical, Michigan, USA] and xylazine [(2% xylazine hydrochloride, 10 mg/kg body weight), Sigma-Aldrich Co., St. Louis, USA]. A single longitudinal skin incision was made on the dorsal midline at the level of the kidneys and both ovaries were ligated and removed to produce an ovariectomy in all OVX group animals. A SHAM-operated group, acting as a negative control for the effect of ovariectomy on bone parameters, underwent bilateral laparotomy, during which the ovaries were exposed but remained intact. […] The lycopene-supplemented groups were given lycopene (15, 30 and 45 mg/kg body weight per day) dissolved in corn oil by daily intra-gastric administration for the experimental period of 12 weeks. The SHAM, OVX and ALN control groups were given the same volume of corn oil without lycopene treatment. […] A 12-week randomized placebo-controlled study in order to examine the protective effects of lycopene supplementation on bone mass and fragility in OVX rats was concluded. Prior to surgery, body weight and bone mineral density (BMD) were obtained for all animals. Rats were randomized using a computer-generated randomization code into one of six groups: (1) sham-operated (SHAM; n=44); (2) ovariectomized control (OVX; n=44); (3) OVX lycopene-supplemented (15 mg/kg body weight per day) (n=44); (4) OVX lycopene-supplemented (30 mg/kg body weight per day) (n=44); (5) OVX lycopene-supplemented (45 mg/kg body weight per day) (n=44) and (6) OVX alendronate-treated (ALN) [2.0 μg/kg body weight per day subcutaneously (sc)] (n=44). Alendronate is an anti-resorptive agent for the treatment of osteoporosis and was used as a positive therapy control. […] All OVX groups were pair-fed with the SHAM group throughout the study to avoid the possible effects of ovariectomy-induced over-consumption and subsequent excessive weight gain. Treatment started 1 week after the surgery: this period of rest allowed the rats to recover from the stress associated with the surgery. In addition, after surgery, rats were administered Diclofenac sodium injection (20 mg/Kg body weight) to reduce the pain associated with the surgery. Rats were weighed and examined daily. Blood and urine samples were collected at baseline, during, and at the end of treatment for measurement of various BTMs and other analytes. In vivo dual energy x-ray absorptiometry (DXA) measurements were made for the bone mineral content (BMC) and BMD of the whole body, lumbar spine (L1-L4), and the right humerus, together with body composition at 12 weeks of treatment. One day following the post-test DXA assessments (at 12 weeks, 16 rats in each group), animals were euthanized by decapitation and right and left femurs were extracted for further biomechanical and histomorphometric analyses. Blood and urine samples were collected from all experimental groups to measure biochemical analytes and BTMs at baseline and 4, 8, and 12 weeks of treatment. Peripheral Quantitative CT (pQCT) scans were made of the proximal tibia metaphysis and the diaphysis. In vivo micro-computed tomographic (μCT) scans of the proximal tibia were obtained during the treatment period to monitor changes in bone mass and microarchitecture. […]

[1] = lycopene 15-45 mg/kg/day, 12 weeks, range over doses

CC(C)=CCC/C(C)=C/C=C/C(C)=C/C=C/C(C)=C/C=C/C=C(C)/C=C/C=C(C)/C=C/C=C(\C)CCC=C(C)C [lycopene]
osteoclast surface (Oc.S/BS) and osteoclast number (N.Oc/BS) (OVX rats, lycopene, P<0.001): significant decreases
bone formation parameters (Ob.S/BS, MS/BS, BFR/BS, BFR/BV) (OVX rats, lycopene, tibial metaphysis): prevented OVX-induced increases
increase in BV/TV, tibial metaphysis (histomorphometry), compared with OVX control [1]: 27.1-92.2%
increase in Tb.N, tibial metaphysis (histomorphometry), compared with OVX control [1]: 9.2-72.9%
OVX-related increases in endocortical bone turnover formation (Ec.L.Pm/Ec.Pm, Ec MAR, Ec.BFR/BS) (lycopene greater than 15 mg/kg body weight per day, tibial diaphysis): completely prevented
bone dynamics on the periosteal surface (lycopene, except at 45 mg/kg body weight per day): positively affected
